Several values for one entry are separate records, joined by “and”; a condition that tells them apart may be missing. Equal entries are not always repeated. Where two headings read alike, the source gives them in different places.
Key:
T. cruzi amastigotes [1] = assay: T. cruzi amastigote assays; format: cell-based, Trypanosoma cruzi
T. cruzi amastigotes [2] = details: cited from earlier work
[3] = biological target: T1, TcFPPS (T. cruzi farnesyl pyrophosphate synthase) (Trypanosoma cruzi, UniProt Q8WS26); details: cited from earlier work
T1 sequence (Q8WS26 1-425): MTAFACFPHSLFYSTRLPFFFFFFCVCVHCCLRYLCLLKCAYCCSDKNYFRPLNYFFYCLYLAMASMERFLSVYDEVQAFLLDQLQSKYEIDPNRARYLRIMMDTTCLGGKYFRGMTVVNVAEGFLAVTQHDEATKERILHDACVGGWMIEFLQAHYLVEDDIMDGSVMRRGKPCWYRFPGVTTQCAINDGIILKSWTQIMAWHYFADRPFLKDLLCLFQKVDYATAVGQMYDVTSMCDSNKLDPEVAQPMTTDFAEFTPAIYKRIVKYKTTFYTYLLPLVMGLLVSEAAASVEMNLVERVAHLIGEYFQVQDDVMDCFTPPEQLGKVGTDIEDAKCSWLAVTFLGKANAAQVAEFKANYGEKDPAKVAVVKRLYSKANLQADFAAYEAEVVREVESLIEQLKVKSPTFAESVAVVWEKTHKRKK

T. gondii tachyzoites [4] = assay: T. gondii tachyzoites assays; format: cell-based, Toxoplasma gondii
[5] = biological target: T1, TcFPPS (T. cruzi farnesyl pyrophosphate synthase); assay: TcFPPS enzymatic activity inhibition; format: biochemical
T. gondii tachyzoites [6] = details: positive control; cited from earlier work

O=C(Cn1ccnc1[N+](=O)[O-])NCc1ccccc1 [Benznidazole, reference compound]
ED50 T. cruzi amastigotes (T. cruzi amastigotes [1]): 1.44 ± 0.97 µM | ED50 intracellular T. cruzi proliferation (T. cruzi amastigotes [2]): 2.77 µM

CCCCCCCCC(F)(P(=O)(O)O)P(=O)(O)O [Compound 10]
cellular activity against T. cruzi (T. cruzi amastigotes [2]): devoid of cellular activity | activity against TcFPPS [3]: devoid

CCCCCCCCCC(F)(P(=O)(O)O)P(=O)(O)O [Compound 11]
cellular activity against T. cruzi (T. cruzi amastigotes [2]): devoid of cellular activity | activity against TcFPPS [3]: devoid

CCCCCCNCC(P(=O)(O)O)P(=O)(O)O [Compound 12]
ED50 against T. cruzi (amastigotes) (T. cruzi amastigotes [2]): 0.84 µM

CCCCCCCCCCCCNCC(P(=O)(O)O)P(=O)(O)O [Compound 14]
ED50 intracellular T. cruzi proliferation (T. cruzi amastigotes [2]): 0.67 µM

CCCCCNCC(O)(P(=O)(O)O)P(=O)(O)O [Compound 27, 1-[(n-Pentylamino)ethyl]-1-hydroxy-1,1-bisphosphonic Acid]
ED50 T. cruzi amastigotes (T. cruzi amastigotes [1]): > 20 µM | ED50 T. gondii tachyzoites (T. gondii tachyzoites [4]): > 10 µM | IC50 [5]: > 10 µM

CCCCCCNCC(O)(P(=O)(O)O)P(=O)(O)O [Compound 28, 1-[(n-Hexylamino)ethyl]-1-hydroxy-1,1-bisphosphonic Acid]
ED50 T. cruzi amastigotes (T. cruzi amastigotes [1]): > 20 µM | ED50 T. gondii tachyzoites (T. gondii tachyzoites [4]): 4.7 µM and 4.68 ± 1.19 µM | IC50 [5]: > 10 µM

CCCCCCCNCC(O)(P(=O)(O)O)P(=O)(O)O [Compound 29, 1-[(n-Heptylamino)ethyl]-1-hydroxy-1,1-bisphosphonic Acid]
ED50 T. cruzi amastigotes (T. cruzi amastigotes [1]): > 20 µM | T. gondii tachyzoites, % at 10 μM (printed in the ED50 column) (T. gondii tachyzoites [4]): 0.00% at 10 μM

CCCCCCCCNCC(O)(P(=O)(O)O)P(=O)(O)O [Compound 30, 1-[(n-Octylamino)ethyl]-1-hydroxy-1,1-bisphosphonic Acid]
ED50 T. gondii tachyzoites (T. gondii tachyzoites [4]): 2.0 µM and 2.00 ± 0.95 µM

CCCCCCCCCCNCC(O)(P(=O)(O)O)P(=O)(O)O [Compound 31, 1-[(n-Decylamino)ethyl]-1-hydroxy-1,1-bisphosphonic Acid]
T. gondii tachyzoites, % at 10 μM (printed in the ED50 column) (T. gondii tachyzoites [4]): 14.9% at 10 μM | IC50 [5]: > 10 µM

O=P(O)(O)C(O)(Cc1cccnc1)P(=O)(O)O [Risedronate, risedronate]
ED50 T. cruzi amastigotes (T. cruzi amastigotes [2]): 55.0 ± 5.0[53] μM | ED50 T. gondii tachyzoites (T. gondii tachyzoites [6]): 2.4 μM and 2.4 ± 0.7[24] μM
